Test results from ChEMBL document CHEMBL1201862, “PubChem BioAssay data set” (2004).
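A five-concentration, 48-hour dose response in 96-well plates underlies each endpoint, interpolated linearly between surrounding concentrations. The concentration for 50% growth inhibition is given as GI50.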 Active and inactive are the calls of the source. Rule as the data show it: active = GI50 up to about 1.1 µM and inactive = higher.

Key:
Assay in all cases: inhibition of tumour cell growth, NCI panel, 48 h
NCI-H23 = tested on: NCI-H23
EKVX = tested on: EKVX
HOP-62 = tested on: HOP-62
SF-268 = tested on: SF-268
NCI-H226 = tested on: NCI-H226
HT-29 = tested on: HT-29
HOP-18 = tested on: HOP-18
OVCAR-5 = tested on: OVCAR-5
UACC-62 = tested on: UACC-62
UO-31 = tested on: UO-31
A549 = tested on: A549
M19-MEL = tested on: M19-MEL
OVCAR-8 = tested on: OVCAR-8
LOX IMVI = tested on: LOX IMVI
CCRF-CEM = tested on: CCRF-CEM
SF-539 = tested on: SF-539
SR = tested on: SR
COLO 205 = tested on: COLO 205
ACHN = tested on: ACHN
RXF 393 = tested on: RXF 393
SNB-19 = tested on: SNB-19
UACC-257 = tested on: UACC-257
786-0 = tested on: 786-0
HOP-92 = tested on: HOP-92
XF498 = tested on: XF498
SK-MEL-5 = tested on: SK-MEL-5
SK-MEL-28 = tested on: SK-MEL-28
DMS-114 = tested on: DMS-114
SK-OV-3 = tested on: SK-OV-3
HCT-15 = tested on: HCT-15
U-251 = tested on: U-251
RXF 631 = tested on: RXF 631
NCI-H460 = tested on: NCI-H460
A498 = tested on: A498
NCI-H522 = tested on: NCI-H522
KM12 = tested on: KM12
OVCAR-4 = tested on: OVCAR-4
M14 = tested on: M14
OVCAR-3 = tested on: OVCAR-3
DLD-1 = tested on: DLD-1
TK-10 = tested on: TK-10
MOLT-4 = tested on: MOLT-4
SNB-78 = tested on: SNB-78
CAKI-1 = tested on: CAKI-1
HCT-116 = tested on: HCT-116
SK-MEL-2 = tested on: SK-MEL-2
SW-620 = tested on: SW-620
SN12C = tested on: SN12C
SF-295 = tested on: SF-295
K562 = tested on: K562
KM-20L2 = tested on: KM-20L2
SNB-75 = tested on: SNB-75
Malme-3M = tested on: Malme-3M
RPMI-8226 = tested on: RPMI-8226
IGROV-1 = tested on: IGROV-1
LXFL 529 = tested on: LXFL 529
HCC 2998 = tested on: HCC 2998
DMS-273 = tested on: DMS-273
HL-60 = tested on: HL-60
MDA-MB-435 = tested on: MDA-MB-435
MDA-MB-231 = tested on: MDA-MB-231
NCI/ADR-RES = tested on: NCI/ADR-RES
DU-145 = tested on: DU-145
BT-549 = tested on: BT-549
PC-3 = tested on: PC-3
MDA-N = tested on: MDA-N
Hs-578T = tested on: Hs-578T
MCF7 = tested on: MCF7
T47D = tested on: T47D

O=CC(O)C(O)C(O)COc1cc(CO)cc2c1C(=O)c1ccccc1C2=O (stereo not drawn)
GI50 (NCI-H23): > 100 µM (inactive) | GI50 (EKVX): > 100 µM (inactive) | GI50 (HOP-62): > 100 µM (inactive) | GI50 (SF-268): > 100 µM (inactive) | GI50 (NCI-H226): > 100 µM (inactive) | GI50 (HT-29): > 100 µM (inactive) | GI50 (HOP-18): > 100 µM (inactive) | GI50 (OVCAR-5): > 100 µM (inactive) | GI50 (UACC-62): > 95.1 µM (inactive) | GI50 (UO-31): > 100 µM (inactive) | GI50 (A549): > 100 µM (inactive) | GI50 (M19-MEL): 37.6 µM (inactive) | GI50 (OVCAR-8): > 100 µM (inactive) | GI50 (LOX IMVI): 99.1 µM (inactive) | GI50 (CCRF-CEM): > 100 µM (inactive) | GI50 (SF-539): > 100 µM (inactive) | GI50 (SR): > 88.3 µM (inactive) | GI50 (COLO 205): > 100 µM (inactive) | GI50 (ACHN): > 31.6 µM (inactive) | GI50 (RXF 393): > 100 µM (inactive) | GI50 (SNB-19): > 100 µM (inactive) | GI50 (UACC-257): > 100 µM (inactive) | GI50 (786-0): > 100 µM (inactive) | GI50 (HOP-92): > 100 µM (inactive) | GI50 (XF498): > 100 µM (inactive) | GI50 (SK-MEL-5): 79.4 µM (inactive) | GI50 (SK-MEL-28): > 100 µM (inactive) | GI50 (DMS-114): > 89.5 µM (inactive) | GI50 (SK-OV-3): > 100 µM (inactive) | GI50 (HCT-15): > 100 µM | GI50 (U-251): > 100 µM (inactive) | GI50 (RXF 631): > 100 µM (inactive) | GI50 (NCI-H460): > 87.3 µM (inactive) | GI50 (A498): > 100 µM (inactive) | GI50 (NCI-H522): > 100 µM (inactive) | GI50 (KM12): > 100 µM (inactive) | GI50 (OVCAR-4): > 94.2 µM (inactive) | GI50 (M14): > 100 µM (inactive) | GI50 (OVCAR-3): 76.4 µM (inactive) | GI50 (DLD-1): > 100 µM (inactive) | GI50 (TK-10): > 100 µM (inactive) | GI50 (MOLT-4): > 100 µM (inactive) | GI50 (SNB-78): > 100 µM (inactive) | GI50 (CAKI-1): > 93.8 µM (inactive) | GI50 (HCT-116): > 100 µM (inactive) | GI50 (SK-MEL-2): > 95.5 µM (inactive) | GI50 (SW-620): > 100 µM (inactive) | GI50 (SN12C): > 100 µM (inactive) | GI50 (SF-295): > 100 µM (inactive) | GI50 (K562): > 100 µM (inactive) | GI50 (KM-20L2): > 100 µM (inactive) | GI50 (SNB-75): > 100 µM (inactive) | GI50 (Malme-3M): 98.9 µM (inactive) | GI50 (RPMI-8226): > 100 µM (inactive) | GI50 (IGROV-1): > 100 µM (inactive) | GI50 (LXFL 529): > 100 µM (inactive) | GI50 (HCC 2998): > 100 µM (inactive) | GI50 (DMS-273): > 100 µM (inactive) | GI50 (HL-60): > 100 µM (inactive)

CC(C)(C)c1nc2c(o1)C(=O)c1ccccc1C2=O
GI50 (NCI-H23): 0.373 µM (active) | GI50 (EKVX): 2.68 µM (inactive) | GI50 (HOP-62): 3.37 µM (inactive) | GI50 (SF-268): 2.47 µM (inactive) | GI50 (MDA-MB-435): 0.185 µM (active) | GI50 (NCI-H226): 3.3 µM (inactive) | GI50 (HT-29): 3.9 µM (inactive) | GI50 (HOP-18): 7.19 µM (inactive) | GI50 (OVCAR-5): 2.38 µM (inactive) | GI50 (UACC-62): 0.653 µM (active) | GI50 (UO-31): 2.81 µM (inactive) | GI50 (A549): 3.53 µM (inactive) | GI50 (M19-MEL): 1.25 µM (inactive) | GI50 (OVCAR-8): 0.92 µM (active) | GI50 (LOX IMVI): 0.394 µM (active) | GI50 (CCRF-CEM): 1.47 µM (inactive) | GI50 (SF-539): 1.12 µM (inactive) | GI50 (SR): 3.16 µM (inactive) | GI50 (COLO 205): 4.81 µM (inactive) | GI50 (ACHN): 2.28 µM (inactive) | GI50 (RXF 393): 2.08 µM (inactive) | GI50 (SNB-19): 5.19 µM (inactive) | GI50 (UACC-257): 0.519 µM (active) | GI50 (786-0): 2.75 µM (inactive) | GI50 (HOP-92): 3.05 µM (inactive) | GI50 (XF498): 2.67 µM (inactive) | GI50 (SK-MEL-5): 0.437 µM (active) | GI50 (SK-MEL-28): 1.95 µM (inactive) | GI50 (DMS-114): 2.23 µM (inactive) | GI50 (SK-OV-3): 4.98 µM (inactive) | GI50 (MDA-MB-231): 0.385 µM (active) | GI50 (NCI/ADR-RES): 0.447 µM (active) | GI50 (HCT-15): 2.48 µM | GI50 (U-251): 1.72 µM (inactive) | GI50 (RXF 631): 5.92 µM (inactive) | GI50 (NCI-H460): 3.82 µM (inactive) | GI50 (A498): 6.21 µM (inactive) | GI50 (NCI-H522): 1.43 µM (inactive) | GI50 (KM12): 2.75 µM (inactive) | GI50 (OVCAR-4): 0.853 µM (active) | GI50 (M14): 0.759 µM (active) | GI50 (OVCAR-3): 0.721 µM (active) | GI50 (DLD-1): 5.83 µM (inactive) | GI50 (TK-10): 5.65 µM (inactive) | GI50 (MOLT-4): 1.76 µM (inactive) | GI50 (DU-145): 1.1 µM (active) | GI50 (SNB-78): 11.5 µM (inactive) | GI50 (CAKI-1): 2.78 µM (inactive) | GI50 (HCT-116): 0.838 µM (active) | GI50 (SK-MEL-2): 0.592 µM (active) | GI50 (SW-620): 1.58 µM (inactive) | GI50 (BT-549): 1.51 µM (inactive) | GI50 (SN12C): 0.959 µM (active) | GI50 (PC-3): 0.505 µM (active) | GI50 (SF-295): 1.93 µM (inactive) | GI50 (MDA-N): 0.199 µM (active) | GI50 (K562): 0.834 µM (active) | GI50 (KM-20L2): 22.1 µM (inactive) | GI50 (SNB-75): 2.96 µM (inactive) | GI50 (Hs-578T): 0.927 µM (active) | GI50 (Malme-3M): 0.574 µM (active) | GI50 (MCF7): 0.485 µM (active) | GI50 (T47D): 0.627 µM (active) | GI50 (RPMI-8226): 1.93 µM (inactive) | GI50 (IGROV-1): 2.46 µM (inactive) | GI50 (LXFL 529): 6.44 µM (inactive) | GI50 (HCC 2998): 4.25 µM (inactive) | GI50 (DMS-273): 5.08 µM (inactive) | GI50 (HL-60): 0.718 µM (active)
